# Experimental data published in patent US20120065153A1, “AZASUGAR DERIVATIVES, HEPARANASE INHIBITORS, METHOD FOR PREPARING SAME, COMPOSITIONS CONTAINING SAME, USE THEREOF” (SANOFI-AVENTIS, priority 2004, published 2012).
# Experiments:
# heparanase = molecular target: T1, heparanase (Homo sapiens, UniProt Q9Y251); assay: Heparanase inhibition in an enzymatic system (degradation of fondaparinux, read out by anti-factor Xa activity); format: biochemical; details: mean±SD, done on two assays
# T1 sequence (Q9Y251 36-543): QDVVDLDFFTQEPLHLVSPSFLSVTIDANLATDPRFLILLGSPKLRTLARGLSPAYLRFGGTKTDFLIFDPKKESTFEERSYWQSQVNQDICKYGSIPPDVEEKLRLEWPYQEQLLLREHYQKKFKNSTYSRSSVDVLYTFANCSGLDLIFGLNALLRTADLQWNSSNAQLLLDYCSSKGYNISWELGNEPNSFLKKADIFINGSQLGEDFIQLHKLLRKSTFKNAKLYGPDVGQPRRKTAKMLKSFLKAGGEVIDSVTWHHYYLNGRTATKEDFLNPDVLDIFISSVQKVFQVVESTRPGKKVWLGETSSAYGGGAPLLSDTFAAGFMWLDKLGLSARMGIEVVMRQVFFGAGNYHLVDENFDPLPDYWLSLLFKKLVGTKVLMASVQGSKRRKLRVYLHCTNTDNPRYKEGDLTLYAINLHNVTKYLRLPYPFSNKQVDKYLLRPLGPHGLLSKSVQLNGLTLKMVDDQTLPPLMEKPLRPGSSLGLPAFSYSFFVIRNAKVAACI
# Experimental: The concentration of fondaparinux is determined by means of its anti-factor Xa activity.
# The heparanase is produced by Sanofi-Synthelabo (Labège, France).
# The reagents for assaying factor Xa are marketed by Chromogénix (Montpellier, France).
# Increasing concentrations of a compound according to the invention, an inhibitor of heparanases (varying dilutions: from 1 nM to 10 μM) are mixed at a fixed heparanase concentration (for each batch, preliminary experiments make it possible to determine the enzymatic activity which is sufficient for the degradation of 0.45 μg/ml of added fondaparinux). After 5 minutes at 37° C., the mixture is exposed to fondaparinux and left for 1 hour at 37° C. The reaction is stopped by heating at 95° C. for 5 minutes. The residual fondaparinux concentration is finally measured by adding factor Xa and its specific chromogenic substrate (Ref. S2222).
# The various mixtures are produced according to the following procedure:
# 50 μl of sodium acetate buffer (0.2 M, pH 4.2) are mixed with 50 μl of fondaparinux (0.45 μg/ml) and 59 μl of a heparanase solution. The mixture is incubated for 1 hour at 37° C. and then for 5 minutes at 95° C. […]
# The anti-factor Xa activity of fondaparinux is measured in the following manner: […]
# The optical density is read at 405 nm.
# A percentage inhibition is determined relative to control without inhibitor. […]
# HT1080 tumour cells = assay: Invasion of HT1080 tumour cells through Matrigel (cell invasion test); format: cell-based, human
# Experimental: The effect of the compounds of formula (I), inhibitors of heparanases, was tested in vitro on the invasion of HT1080 tumour cells.
# The cells derived from human fibrosarcomas, HT1080 (ATCC CCL-121) are cultured in a DMEM medium (Ref.: GIBCO 11960-044) containing 5% Foetal Calf Serum, glutamine (2 mM) (Ref.: GIBCO 25030-024), sodium pyruvate (1 mM) (Ref.: GIBCO 11360-039) and nonessential amino acids (1×) (Ref.: GIBCO 11140-035), on collagen coated flasks (Becton Dickinson 75 cm^2; Ref. 354523), to 50 to 80% confluence.
# The measurements of invasion of the HT1080 cells are carried out on a Becton Dickinson falcon HTS Fluoroblock Multiwell Insert System kit in 24-well plates (Ref.: 351158). These measurement chambers give the cells the conditions which make it possible to evaluate their invasive properties in vitro.
# The kit is composed of a plate combined with culture inserts containing a PET membrane pierced with 8 micron pores on which a uniform Matrigel Matrix (Becton Dickinson; Ref. 354230) layer is deposited.
# Matrigel is a soluble basal membrane extracted from the EHS (Engelbreth-Holm-Swarm) tumour which, by virtue of its composition, forms, upon solidifying, a structure equivalent to a basal membrane.
# The Matrigel layer blocks the pores of the membrane, thus blocking the migration of the noninvasive cells across the membrane. By contrast, the invasive (tumour or nontumour) cells will be capable of becoming detached and of invading the Matrigel layer before migrating across the membrane.
# The quantification of the cell migration is carried out by labelling with calcein AM (Molecular Probes C-3100). The fluorescent signal emitted is measured with the aid of a Perkin Elmer Wallac VICTOR 3 reader and may be directly correlated with the number of cells which have invaded the Matrigel gel. By comparing them with controls made in the same experiment as the products studied (response in the presence of 0% and 5% foetal calf serum), it is possible to determine a percentage inhibition of cell invasion in the presence of the products.
Compound,IC50 (heparanase),inhibition of cell invasion (HT1080 tumour cells; 0.3 μM),inhibition of cell invasion (HT1080 tumour cells; 1 μM),"inhibition of cell invasion (HT1080 tumour cells; 10 μM, four independent determinations, mean±standard deviation)",effect on cell invasion as a function of dose (HT1080 tumour cells; HT1080 cells)
"O=C(O)[C@H]1CNC[C@@H](O)[C@@H]1O[C@H]1O[C@H](COS(=O)(=O)O)[C@@H](O[C@@H]2O[C@@H](C(=O)O)[C@@H](O[C@H]3O[C@H](COS(=O)(=O)O)[C@@H](O[C@@H]4O[C@@H](C(=O)O)[C@@H](OS(=O)(=O)O)[C@H](O)[C@H]4OS(=O)(=O)O)[C@H](O)[C@H]3NS(=O)(=O)O)[C@H](O)[C@H]2OS(=O)(=O)O)[C@H](O)[C@H]1NS(=O)(=O)O [compound No. 27, (2,4-di-O-sodium sulphonato-α-L-idopyranosyluronate of sodium)-(1-4)-(2-N-sodiumsulphonato-2-deoxy-6-O-sodiumsulphonato-α-D-glucopyranosyl)-(1-4)-(2-O-sodiumsulphonato-α-L-idopyranosyluronate of sodium)-(1-4)-(2-N-sodiumsulphonato-2-deoxy-6-O-sodiumsulphonato-α-D-glucopyranosyl)-(1-4)-(5-(hydroxy)-4-oxypiperidine-3-carboxylate of sodium (3S,4R,5R))]",11 ± 4 nM,–,–,–,–
"CC(=O)N[C@H]1[C@@H](O[C@H]2[C@H](O)CNC[C@@H]2C(=O)O)O[C@H](COS(=O)(=O)O)[C@@H](O[C@@H]2O[C@@H](C(=O)O)[C@@H](O[C@H]3O[C@H](COS(=O)(=O)O)[C@@H](O[C@@H]4O[C@@H](C(=O)O)[C@@H](OS(=O)(=O)O)[C@H](O)[C@H]4OS(=O)(=O)O)[C@H](O)[C@H]3NC(C)=O)[C@H](O)[C@H]2OS(=O)(=O)O)[C@@H]1O.[Na+].[Na+].[Na+].[Na+].[Na+].[Na+].[Na+].[Na+] [compound No. 20, (2,4-di-O-sodium sulphonato-α-L-idopyranosyluronate of sodium)-(1-4)-(2-acetamido-2-deoxy-6-O-sodiumsulphonato-α-D-glucopyranosyl)-(1-4)-(2-O-sodiumsulphonato-α-L-idopyranosyluronate of sodium)-(1-4)-(2-acetamido-2-deoxy-6-O-sodiumsulphonato-α-D-glucopyranosyl)-(1-4)-(5-(hydroxy)-4-oxypiperidine-3-carboxylate of sodium (3S,4R,5R))]",–,26±3%,53±11%,40.3±8.3%,dose-dependent effect
